How the values were obtained:
HepaRG cells [1] = assay: Hepatotoxicity evaluation by dead cell staining (EthD-1) in the microfabricated platform for mimicking the liver zonation; assay type: cell-based; conditions: 10 mM acetaminophen, 48 hours
Experimental: First, an impermeable fluorescent substance was formed in the inside of HepaRG cells by using cell tracker deep red fluorescent solution in order to trace the location of HepaRG cells. A microfabricated platform for mimicking the liver zonation was prepared by the same conditions and same manners as described in Example 1 by using the prepared HepaRG cells. […] As a control, a culture medium without acetaminophen was used. Upon completion of the culture, the medium was removed and the dead cells were stained with EthD-1 (ethidium homodimer-1).

HepaRG cells [2] = assay: Hepatotoxicity evaluation by cell viability (cell counting kit-8) of pieces of the microfabricated platform for mimicking the liver zonation; assay type: cell-based; conditions: 48 hours; acetaminophen 12.5-200 mM, tamoxifen 31.2-500 μM; pieces along CHIR gradient
Experimental: The 96-well plate was cultured at 37° C. for 48 hours. Upon completion of the reaction, cells were washed with PBS and the absorbance of the cells was measured using cell counting kit-8 (Dojindo Molecular Technologies) according to the manufacturer's protocol.

liver tissue = assay: Hepatotoxicity in liver tissue of a rat model (H&E staining); assay type: in vivo, Sprague Dawley rats; conditions: oral, once a day for 3 days; acetaminophen 1,000 mg/kg, tamoxifen 60 mg/kg
Source text: After the administration, the animals were sacrificed, from which the liver tissues were obtained. The obtained liver tissues were stained with H&E, followed by observation under a microscope.

For `CC(=O)Nc1ccc(O)cc1` [acetaminophen], the “EthD-1 staining of dead cells (fluorescence intensity) by zone” value (HepaRG cells [1]) was “high fluorescence intensity in those hepatocytes exposed to a relatively high concentration of CHIR”, the “zone-specific sensitivity of cell viability to drug induced toxicity” value (HepaRG cells [2]) was “more sensitive to the acetaminophen induced toxicity” and the “liver histopathology by zone (H&E)” value (liver tissue) was “increased mitosis (yellow triangle), necrosis (blue triangle) and inflammatory cell infiltration (green triangle) in the central vein of the liver (zone 3)”.
